“Also recorded” adds a separate entry of the source.
Key:
[1] = system: splenocytes of WT-vaccinated HLA-A2 tg mice; assay type: cell-based, mouse; design: key to response compared with WT peptide control, mouse splenocytes: *: Lower response than WT peptide
[2] = system: CD8+ T cells of HLA-A2+ human donors; assay type: cell-based; design: key to response compared with WT peptide control, DC model: *: Lower response than WT peptide
HLA-A2 transgenic mice = conditions: mouse, in vivo; for IFN-γ ELISpot response after restimulation with WT peptide / IFN-γ ELISpot response after restimulation with homologous peptide: sc
HLA-A*0201 = biological target: T1, HLA-A*0201 (Homo sapiens, UniProt P04439, D140Y/D185E/D98H/E176V/E277Q/G131W/G231S/I119V/I121R/I166T/I218V/L300P/L318F/N151K/N90K/P208A/P217A/Q86G/Q94H/R138H/R169H/T345S); assay type: binding
T1 construct: Soluble MHC was dissolved in PBS containing 0.5 mg/ml bovine γ-globulin; made in house

[3] = system: […]-specific T cell clone; assay type: cell-based

Substance | Mouse splenocytes (ex vivo assay), Average [1] | DC model: IFN-γ-positive CD8+ T cells, Average [2] | T cell (IFN-γ) response of vaccinated HLA-A2 tg mice, restimulation not specified or both (HLA-A2 transgenic mice) | IFN-γ ELISpot response after restimulation with WT peptide (HLA-A2 transgenic mice) | FP binding score, percentage inhibition of tracer peptide binding, 4h (HLA-A*0201) [%] | FP binding score, percentage inhibition of tracer peptide binding, 24h (HLA-A*0201) [%] | binding score (HLA-A*0201) [%] | rank by T cell activation, DC model [2] | response compared with WT peptide control, DC model [2] | T cell clone: percentage of IFN-γ producing T cells, Average [3] [%] | number of mice responding to WT peptide restimulation (HLA-A2 transgenic mice) | number of mice responding to homologous peptide restimulation (HLA-A2 transgenic mice) | IFN-γ ELISpot response after restimulation with homologous peptide (HLA-A2 transgenic mice) | rank by T cell activation, mouse splenocytes [1] | response compared with WT peptide control, mouse splenocytes [1] | proportion of vaccinated mice that respond (HLA-A2 transgenic mice) | rank by T cell activation, T cell clone [3]
[am-phg]MYSDFHFI [F111] | 86 | 0.08 | improved T cell responses; also recorded: improved immunogenicity; also recorded: higher homologous and heterologous responses | higher responses compared to WT-peptide vaccination; also recorded: higher IFN-γ responses than WT peptide-vaccinated mice | 75 | 72 | 72 |  |  |  |  |  |  |  |  |  | 
[4-PYRA]ILGFVFTL [G15] | 53 | 0.17 |  |  |  |  |  | Upper 3 | G15 ^* | 33.4 |  |  |  |  |  |  | 
[am-phg]MLSTVLGV [N46] | 363 | 0.02 |  | reduced to zero; also recorded: do not always react to restimulation with WT peptide | 80 | 76 | 81 | Lower 3 |  |  | no responders | four | increased the responses compared to vaccination with WT peptide |  |  |  | 
G[2-AOC]LGFVFT[PRG] [G26] | 61 | 0.45 |  | do not always react to restimulation with WT peptide | 60 | 54 |  | Upper 3 |  |  |  |  |  |  |  |  | 
[SOME][2-AOC]LSTVLGV [N92] | 380 | 0.04 |  | did not respond to restimulation | 84 | 81 |  |  |  |  |  |  | did not respond to restimulation | Upper 3 | N92 ^* |  | 
NMLSTVLGV [NWT, reference compound] | 436 | 0.04 |  |  | 53 | 46 |  |  |  |  |  |  |  |  |  | approximately one out of six | 
yILGFVFTL [G9] | 20 | 0.11 |  |  |  |  |  |  |  | 1.1 |  |  |  | Lower 3 |  |  | Lower 3
[4-pyra]ILGFVFTL [G10] | 47 | 0.14 |  |  |  |  |  |  |  | 45.4 |  |  |  |  |  |  | 
